Experimental data reported in ChEMBL document CHEMBL1124696, “Nucleoside peptides. 10. Synthesis and T-cell immunostimulatory properties of certain peptide derivatives of 6-azacadeguomycin” (1989).

How the values were obtained:
Format in all cases: functional
Homo sapiens [1] = organism: Homo sapiens; assay: Mitogen-induced human lymphocyte proliferation measured by incorporation of [3H]thymidine in lymphocytes with Concanavalin A (Con A) at a concentration of 0.25 ug with out compound
Homo sapiens [2] = organism: Homo sapiens; assay: Mitogen-induced human lymphocyte proliferation measured by incorporation of [3H]thymidine in lymphocytes with Pokeweed mitogen at a concentration of 1/2500 ug without compound
Homo sapiens [3] = organism: Homo sapiens; assay: Mitogen-induced human lymphocyte proliferation measured by incorporation of [3H]thymidine in lymphocytes with Pokeweed mitogen at a concentration of 1/2500 ug with compound at 0.1 uM
Homo sapiens [4] = organism: Homo sapiens; assay: Mitogen-induced human lymphocyte proliferation measured by incorporation of [3H]thymidine in lymphocytes with Phytohemagglutininin at a concentration of 0.25 ug with compound at 400 uM
Homo sapiens [5] = organism: Homo sapiens; assay: Mitogen-induced human lymphocyte proliferation measured by incorporation of [3H]thymidine in lymphocytes with Concanavalin A (Con A) at a concentration of 0.25 ug with compound at 50 uM
Homo sapiens [6] = organism: Homo sapiens; assay: Mitogen-induced human lymphocyte proliferation measured by incorporation of [3H]thymidine in lymphocytes with Concanavalin A at a concentration of 0.25 ug with compound at 400 uM
Homo sapiens [7] = organism: Homo sapiens; assay: Mitogen-induced human lymphocyte proliferation measured by incorporation of [3H]thymidine in lymphocytes with Concanavalin A (Con A) at a concentration of 0.25 ug with compound at 0.1 uM
Homo sapiens [8] = organism: Homo sapiens; assay: Mitogen-induced human lymphocyte proliferation measured by incorporation of [3H]thymidine in lymphocytes with Concanavalin A (Con A) at a concentration of 0.25 ug with compound at 10 uM
Homo sapiens [9] = organism: Homo sapiens; assay: Mitogen-induced human lymphocyte proliferation measured by incorporation of [3H]thymidine in lymphocytes with Phytohemagglutininin at a concentration of 0.25 ug with compound at 50 uM
Homo sapiens [10] = organism: Homo sapiens; assay: Mitogen-induced human lymphocyte proliferation measured by incorporation of [3H]thymidine in lymphocytes with Phytohemagglutininin at a concentration of 0.125 ug without compound
Homo sapiens [11] = organism: Homo sapiens; assay: Mitogen-induced human lymphocyte proliferation measured by incorporation of [3H]-thymidine in lymphocytes with Phytohemagglutininin at a concentration of 0.25 ug with compound at 0.1 uM
Homo sapiens [12] = organism: Homo sapiens; assay: Mitogen-induced human lymphocyte proliferation measured by incorporation of [3H]thymidine in lymphocytes with Phytohemagglutininin at a concentration of 0.25 ug with compound at 1 uM
Homo sapiens [13] = organism: Homo sapiens; assay: Mitogen-induced human lymphocyte proliferation measured by incorporation of [3H]thymidine in lymphocytes with Pokeweed mitogen at a concentration of 1/2500 ug with compound at 10 uM
Homo sapiens [14] = organism: Homo sapiens; assay: Mitogen-induced human lymphocyte proliferation measured by incorporation of [3H]thymidine in lymphocytes with Concanavalin A (Con A) at a concentration of 0.25 ug with compound at 1 uM
Homo sapiens [15] = organism: Homo sapiens; assay: Mitogen-induced human lymphocyte proliferation measured by incorporation of [3H]thymidine in lymphocytes with Pokeweed mitogen at a concentration of 1/2500 ug with compound at 1 uM.
Homo sapiens [16] = organism: Homo sapiens; assay: Mitogen-induced human lymphocyte proliferation measured by incorporation of [3H]thymidine in lymphocytes with Pokeweed mitogen at a concentration of 1/2500 ug with compound at 50 uM
Homo sapiens [17] = organism: Homo sapiens; assay: Mitogen-induced human lymphocyte proliferation measured by incorporation of [3H]thymidine in lymphocytes with Pokeweed mitogen at a concentration of 1/2500 ug with compound at 400 uM
Homo sapiens [18] = organism: Homo sapiens; assay: Mitogen-induced human lymphocyte proliferation measured by incorporation of [3H]thymidine in lymphocytes with Phytohemagglutininin at a concentration of 0.25 ug with compound at 10 uM
Homo sapiens [19] = organism: Homo sapiens; assay: Mitogen-induced human lymphocyte proliferation measured by incorporation of [3H]thymidine in lymphocytes with Pokeweed mitogen at a concentration of 1/2500 ug with out compound
Homo sapiens [20] = organism: Homo sapiens; assay: Mitogen-induced human lymphocyte proliferation measured by incorporation of [3H]thymidine in lymphocytes with Phytohemagglutininin at a concentration of 0.125 ug with compound at 1 uM
Homo sapiens [21] = organism: Homo sapiens; assay: Mitogen-induced human lymphocyte proliferation measured by incorporation of [3H]thymidine in lymphocytes with Phytohemagglutininin at a concentration of 0.125 ug with compound at 10 uM
Homo sapiens [22] = organism: Homo sapiens; assay: Mitogen-induced human lymphocyte proliferation measured by incorporation of [3H]thymidine in lymphocytes with Pokeweed mitogen at a concentration of 1/2500 ug with compound at 1 uM
Homo sapiens [23] = organism: Homo sapiens; assay: Mitogen-induced human lymphocyte proliferation measured by incorporation of [3H]thymidine in lymphocytes with Phytohemagglutininin at a concentration of 0.125 ug with compound at 400 uM
Homo sapiens [24] = organism: Homo sapiens; assay: Mitogen-induced human lymphocyte proliferation measured by incorporation of [3H]thymidine in lymphocytes with Phytohemagglutininin at a concentration of 0.125 ug with compound at 0.1 uM
Homo sapiens [25] = organism: Homo sapiens; assay: Mitogen-induced human lymphocyte proliferation measured by incorporation of [3H]thymidine in lymphocytes with Phytohemagglutininin at a concentration of 0.125 ug with out compound
Homo sapiens [26] = organism: Homo sapiens; assay: Mitogen-induced human lymphocyte proliferation measured by incorporation of [3H]-thymidine in lymphocytes with Phytohemagglutininin at a concentration of 0.125 ug with compound at 50 uM
Homo sapiens [27] = organism: Homo sapiens; assay: Mitogen-induced human lymphocyte proliferation measured by incorporation of [3H]thymidine in lymphocytes with Concanavalin A (Con A) at a concentration of 0.25 microg with compound at 10 uM

| Compound | Incorporation (Homo sapiens [1]) | Incorporation (Homo sapiens [3]) | Incorporation (Homo sapiens [5]) | Incorporation (Homo sapiens [6]) | Incorporation (Homo sapiens [7]) | Incorporation (Homo sapiens [13]) | Incorporation (Homo sapiens [14]) | Incorporation (Homo sapiens [16]) | Incorporation (Homo sapiens [17]) | also measured |
| --- | --- | --- | --- | --- | --- | --- | --- | --- | --- | --- |
| Nc1nc2c(c(C(=O)O)nn2C2O[C@H](CO)[C@@H](O)[C@H]2O)c(=O)[nH]1 (stereo partly specified) | 21143 | 35813 | 22446 | 22619 | 20186 | 36867 | 21319 | 34808 | 34537 | Incorporation (Homo sapiens [2]): 35867; Incorporation (Homo sapiens [4]): 29655; Incorporation (Homo sapiens [8]): 27385; Incorporation (Homo sapiens [9]): 31662; Incorporation (Homo sapiens [10]): 28436; Incorporation (Homo sapiens [11]): 25106; Incorporation (Homo sapiens [12]): 28393; Incorporation (Homo sapiens [15]): 39189; Incorporation (Homo sapiens [18]): 32955 |
| NC(=O)[C@H](Cc1ccccc1)NC(=O)c1nn(C2O[C@H](CO)[C@@H](O)[C@H]2O)c2nc(N)[nH]c(=O)c12 (stereo partly specified) | 27326 | 39180 | 27642 | 30812 | 24317 | 44634 | 26510 | 40511 | 37204 | Incorporation (Homo sapiens [19]): 31047; Incorporation (Homo sapiens [20]): 35042; Incorporation (Homo sapiens [21]): 54960; Incorporation (Homo sapiens [22]): 41073; Incorporation (Homo sapiens [23]): 42771; Incorporation (Homo sapiens [24]): 26149; Incorporation (Homo sapiens [25]): 38473; Incorporation (Homo sapiens [26]): 53121; Incorporation (Homo sapiens [27]): 29989 |
